Target: KRas G12C (Homo sapiens, UniProt P01116, G12C)
Assay: Cellular inhibition of KRas G12C measured by Phospho-ERK in NCI-H358 cells
Format: cell-based
Conditions: pERK(Thr202/Tyr204) normalized with GAPDH, NCI-H358 cells, 3 hours; read-out: IC50
How it was run: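 NCI-H358 cells treated 3 h with compound (0.5% DMSO final), then fixed and methanol-permeabilised. In-cell immunofluorescence measured pERK(Thr202/Tyr204) normalised to GAPDH as percent of DMSO control. IC50 from a 4-parameter dose-response fit.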

Chain of KRas G12C (P01116 1-188 isoform P01116-2 G12C): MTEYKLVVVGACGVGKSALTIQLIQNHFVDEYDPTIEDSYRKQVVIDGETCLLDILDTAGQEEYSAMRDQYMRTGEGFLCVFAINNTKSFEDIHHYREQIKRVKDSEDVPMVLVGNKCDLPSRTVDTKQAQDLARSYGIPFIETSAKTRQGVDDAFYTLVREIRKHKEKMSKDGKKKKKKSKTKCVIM

Question: Cc1cccc2cccc(N3CCc4c(nc(OC[C@H]5C[C@@H](F)CN5C)nc4N4CCN(C(=O)/C=C/CO)[C@@H](CC#N)C4)C3)c12 [Example 522, 2-((S)-4-(2-(((2R,4R)-4-fluoro-1-methylpyrrolidin-2-yl)methoxy)-7-(8-methylnaphthalen-1-yl)-5,6,7,8-tetrahydropyrido[3,4-d]pyrimidin-4-yl)-1-((E)-4-hydroxybut-2-enoyl)piperazin-2-yl)acetonitrile] was tested. Which IC50 did it give?
Answer: Its IC50 is 0.0001 to 1 µM.

Question: With CO[C@@H]1C[C@H](COc2nc3c(c(N4CCN(C(=O)/C=C/CO)[C@@H](CC#N)C4)n2)CCN(c2cccc4cccc(C)c24)C3)N(C)C1 [Example 523, 2-[(2S)-1-[(E)-4-hydroxybut-2-enoyl]-4-[2-[[(2R,4R)-4-methoxy-1-methyl-pyrrolidin-2-yl]methoxy]-7-(8-methyl-1-naphthyl)-6,8-dihydro-5H-pyrido[3,4-d]pyrimidin-4-yl]piperazin-2-yl]acetonitrile] as the compound, how does the IC50 read?
Answer: The IC50 was 0.0001 to 1 µM.

Question: How did the IC50 turn out when C=C(NC(C)=O)C(=O)N1CCN(c2nc(OC[C@@H]3CCCN3C)nc3c2CCN(c2cccc4cccc(C)c24)C3)C[C@@H]1CC#N [Example 525, N-(3-((S)-2-(cyanomethyl)-4-(7-(8-methylnaphthalen-1-yl)-2-(((S)-1-methylpyrrolidin-2-yl)methoxy)-5,6,7,8-tetrahydropyrido [3,4-d]pyrimidin-4-yl)piperazin-1-yl)-3-oxoprop-1-en-2-yl)acetamide] was run?
Answer: The IC50 was 0.0001 to 1 µM.

Question: For Cc1cccc2cccc(N3CCc4c(nc(OC[C@@H]5CCCN5C)nc4N4CCN(C(=O)/C=C/c5ccncc5)[C@@H](CC#N)C4)C3)c12 [Example 526, 2-((S)-4-(7-(8-methylnaphthalen-1-yl)-2-(((S)-1-methylpyrrolidin-2-yl)methoxy)-5,6,7,8-tetrahydropyrido[3,4-d]pyrimidin-4-yl)-1-((E)-3-(pyridin-4-yl)acryloyl)piperazin-2-yl)acetonitrile], which IC50 is on record?
Answer: Its IC50 is 0.0001 to 1 µM.

Question: How did the IC50 turn out when C=C(F)C(=O)N1CCN(c2nc(OC[C@@H]3CCCN3C)nc3c2CCN(c2c(C(F)(F)F)c(C)cc4[nH]ncc24)C3)C[C@@H]1CC#N [Example 527] was run?
Answer: Its IC50 is 0.0001 to 1 µM.

Question: C=C(F)C(=O)N1CCN(c2nc(OC[C@@H]3CCC(=O)N3C)nc3c2CCN(c2cccc4cccc(C)c24)C3)C[C@@H]1CC#N [Example 569, 2-[(2S)-1-(2-Fluoroprop-2-enoyl)-4-[7-(8-methyl-1-naphthyl)-2-[[(2S)-1-methyl-5-oxo-pyrrolidin-2-yl]methoxy]-6,8-dihydro-5H-pyrido[3,4-d]pyrimidin-4-yl]piperazin-2-yl]acetonitrile] was tested. Which IC50 did it give?
Answer: The IC50 was > 1 µM.

Question: With C=C(F)C(=O)N1CCN(c2nc(OC[C@@H]3[C@H](O)CC(=O)N3C)nc3c2CCN(c2cccc4cccc(C)c24)C3)C[C@@H]1CC#N [Example 570, 2-[(2S)-1-(2-Fluoroprop-2-enoyl)-4-[2-[[(2R,3R)-3-hydroxy-1-methyl-5-oxo-pyrrolidin-2-yl]methoxy]-7-(8-methyl-1-naphthyl)-6,8-dihydro-5H-pyrido[3,4-d]pyrimidin-4-yl]piperazin-2-yl]acetonitrile] as the compound, how does the IC50 read?
Answer: The IC50 was > 1 µM.

Question: With C=C(F)C(=O)N1CCN(c2nc(OC[C@@H]3[C@H](O)CC(=O)N3C)nc3c2CCN(c2cccc4cccc(Cl)c24)C3)C[C@@H]1CC#N [Example 573, 2-[(2S)-4-[7-(8-Chloro-1-naphthyl)-2-[[(2R,3R)-3-hydroxy-1-methyl-5-oxo-pyrrolidin-2-yl]methoxy]-6,8-dihydro-5H-pyrido[3,4-d]pyrimidin-4-yl]-1-(2-fluoroprop-2-enoyl)piperazin-2-yl]acetonitrile] as the compound, how does the IC50 read?
Answer: The IC50 was > 1 µM.

Question: For CN1CC[C@@H](COc2nc3c(c(N4CCN(C(=O)/C=C/CF)[C@@H](CC#N)C4)n2)CCN(c2cccc4cccc(Cl)c24)C3)C1 [Example 584, 2-[(2S)-4-[7-(8-chloro-1-naphthyl)-2-[[(3R)-1-methylpyrrolidin-3-yl]methoxy]-6,8-dihydro-5H-pyrido[3,4-d]pyrimidin-4-yl]-1-[(E)-4-fluorobut-2-enoyl]piperazin-2-yl]acetonitrile], which IC50 is on record?
Answer: Its IC50 is 0.0001 to 1 µM.

Question: How did the IC50 turn out when Cc1cccc2cccc(N3CCc4c(nc(OC[C@@H]5CC(F)(F)CN5C)nc4N4CCN(C(=O)/C=C/CF)[C@@H](CC#N)C4)C3)c12 [Example 601, 2-[(2S)-4-[2-[[(2S)-4,4-difluoro-1-methyl-pyrrolidin-2-yl]methoxy]-7-(8-methyl-1-naphthyl)-6,8-dihydro-5H-pyrido[3,4-d]pyrimidin-4-yl]-1-[(E)-4-fluorobut-2-enoyl]piperazin-2-yl]acetonitrile] was run?
Answer: Its IC50 is 0.0001 to 1 µM.

Question: How did the IC50 turn out when C=C(F)C(=O)N1CCN(c2nc(OC[C@@H]3CCCN3C)nc3c2CCN(c2cccc4ccccc24)C3)C[C@@H]1CC#N [Example 602, 2-[(2S)-1-(2-fluoroprop-2-enoyl)-4-[2-[[(2S)-1-methylpyrrolidin-2-yl]methoxy]-7-(1-naphthyl)-6,8-dihydro-5H-pyrido[3,4-d]pyrimidin-4-yl]piperazin-2-yl]acetonitrile] was run?
Answer: Its IC50 is 0.0001 to 1 µM.

Question: How did the IC50 turn out when C=C(F)C(=O)N1CCN(c2nc(OCC3CCCC3)nc3c2CCN(c2cccc4cccc(C)c24)C3)C[C@@H]1CC#N [Example 603, 2-[(2S)-4-[2-(cyclopentylmethoxy)-7-(8-methyl-1-naphthyl)-6,8-dihydro-5H-pyrido[3,4-d]pyrimidin-4-yl]-1-(2-fluoroprop-2-enoyl)piperazin-2-yl]acetonitrile] was run?
Answer: The IC50 was > 1 µM.

Question: For C=C(F)C(=O)N1CCN(c2nc(OC[C@@H]3CCCN3C)nc3c2CCN(c2c(C)c(C)cc4[nH]ncc24)C3)C[C@@H]1CC#N [Example 604, 2-[(2S)-4-[7-(5,6-dimethyl-1H-indazol-4-yl)-2-[[(2S)-1-methylpyrrolidin-2-yl]methoxy]-6,8-dihydro-5H-pyrido[3,4-d]pyrimidin-4-yl]-1-(2-fluoroprop-2-enoyl)piperazin-2-yl]acetonitrile], which IC50 is on record?
Answer: The IC50 was 0.0001 to 1 µM.

Question: Which IC50 does the source give for C=C(F)C(=O)N1CCN(c2nc(OCc3ccccn3)nc3c2CCN(c2cccc4cccc(C)c24)C3)C[C@@H]1CC#N [Example 605, 2-[(2S)-1-(2-fluoroprop-2-enoyl)-4-[7-(8-methyl-1-naphthyl)-2-(2-pyridylmethoxy)-6,8-dihydro-5H-pyrido[3,4-d]pyrimidin-4-yl]piperazin-2-yl]acetonitrile] here?
Answer: Its IC50 is > 1 µM.

Question: For C=C(F)C(=O)N1CCN(c2nc(OC[C@@H]3C[C@@H](F)CN3C)nc3c2CCN(c2c(C)c(C)cc4[nH]ncc24)C3)C[C@@H]1CC#N [Example 606, 2-((S)-4-(7-(5,6-dimethyl-1H-indazol-4-yl)-2-(((2S,4R)-4-fluoro-1-methylpyrrolidin-2-yl)methoxy)-5,6,7,8-tetrahydropyrido[3,4-d]pyrimidin-4-yl)-1-(2-fluoroacryloyl)piperazin-2-yl)acetonitrile], which IC50 is on record?
Answer: Its IC50 is 0.0001 to 1 µM.

Question: For C=C(F)C(=O)N1CCN(c2nc(OC[C@@H]3CCCN3C)nc3c2CCN(c2cncc4ccc(C)cc24)C3)C[C@@H]1CC#N [Example 607, 2-((S)-1-(2-fluoroacryloyl)-4-(7-(6-methylisoquinolin-4-yl)-2-(((S)-1-methylpyrrolidin-2-yl)methoxy)-5,6,7,8-tetrahydropyrido[3,4-d]pyrimidin-4-yl)piperazin-2-yl)acetonitrile], which IC50 is on record?
Answer: Its IC50 is 0.0001 to 1 µM.

Question: C=C(F)C(=O)N1CCN(c2nc(OC[C@@H]3CCCN3C)nc3c2CCN(c2cccc4cccc(CC)c24)C3)C[C@@H]1CC#N [Example 608, 2-[(2S)-4-[7-(8-ethyl-1-naphthyl)-2-[[(2S)-1-methylpyrrolidin-2-yl]methoxy]-6,8-dihydro-5H-pyrido[3,4-d]pyrimidin-4-yl]-1-(2-fluoroprop-2-enoyl)piperazin-2-yl]acetonitrile] was tested. Which IC50 did it give?
Answer: The IC50 was 0.0001 to 1 µM.

Question: Which IC50 does the source give for C=C(F)C(=O)N1CCN(c2nc(OC[C@@H]3CCCN3C)nc3c2CCN(c2cncc4ccc(F)cc24)C3)C[C@@H]1CC#N [Example 609, 2-[(2S)-4-[7-(6-fluoro-4-isoquinolyl)-2-[[(2S)-1-methylpyrrolidin-2-yl]methoxy]-6,8-dihydro-5H-pyrido[3,4-d]pyrimidin-4-yl]-1-(2-fluoroprop-2-enoyl)piperazin-2-yl]acetonitrile] here?
Answer: Its IC50 is 0.0001 to 1 µM.

Question: C=C(F)C(=O)N1CCN(c2ncnc3c2CCN(c2cccc4ccccc24)C3)C[C@@H]1CC#N [Example 610, (S)-2-(1-(2-fluoroacryloyl)-4-(7-(naphthalen-1-yl)-5,6,7,8-tetrahydropyrido[3,4-d]pyrimidin-4-yl)piperazin-2-yl)acetonitrile] was tested. Which IC50 did it give?
Answer: Its IC50 is > 1 µM.

Question: C=C(F)C(=O)N1CCN(c2ncnc3c2CCN(c2cccc4cccc(C)c24)C3)C[C@@H]1CC#N [Example 611, (S)-2-(1-(2-fluoroacryloyl)-4-(7-(8-methylnaphthalen-1-yl)-5,6,7,8-tetrahydropyrido[3,4-d]pyrimidin-4-yl)piperazin-2-yl)acetonitrile] was tested. Which IC50 did it give?
Answer: The IC50 was > 1 µM.

Question: With C=C(F)C(=O)N1CCN(c2ncnc3c2CCN(c2cncc4cccc(Cl)c24)C3)C[C@@H]1CC#N [Example 612, (S)-2-(4-(7-(5-chloroisoquinolin-4-yl)-5,6,7,8-tetrahydropyrido[3,4-d]pyrimidin-4-yl)-1-(2-fluoroacryloyl)piperazin-2-yl)acetonitrile] as the compound, how does the IC50 read?
Answer: The IC50 was > 1 µM.

Question: C=C(F)C(=O)N1CCN(c2nc(OC[C@@H]3CC(F)(F)CN3C)nc3c2CCN(c2c(C)c(C)cc4[nH]ncc24)C3)C[C@@H]1CC#N [Example 613, 2-((S)-4-(2-(((S)-4,4-difluoro-1-methylpyrrolidin-2-yl)methoxy)-7-(5,6-dimethyl-1H-indazol-4-yl)-5,6,7,8-tetrahydropyrido[3,4-d]pyrimidin-4-yl)-1-(2-fluoroacryloyl)piperazin-2-yl)acetonitrile] was tested. Which IC50 did it give?
Answer: The IC50 was 0.0001 to 1 µM.

Question: Cc1cc2[nH]ncc2c(N2CCc3c(nc(OC[C@@H]4CC(F)(F)CN4C)nc3N3CCN(C(=O)/C=C/CF)[C@@H](CC#N)C3)C2)c1C [Example 614, 2-((S)-4-(2-(((S)-4,4-difluoro-1-methylpyrrolidin-2-yl)methoxy)-7-(5,6-dimethyl-1H-indazol-4-yl)-5,6,7,8-tetrahydropyrido[3,4-d]pyrimidin-4-yl)-1-((E)-4-fluorobut-2-enoyl)piperazin-2-yl)acetonitrile] was tested. Which IC50 did it give?
Answer: Its IC50 is 0.0001 to 1 µM.

Source: patent publication US10689377B2 (Mirati Therapeutics, Inc., priority 2017, dated 2020)
